ChEMBL document CHEMBL1201862, “PubChem BioAssay data set” (2004)
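Tested at 5 concentrations; 48 h exposure; 96-well plates; endpoints linearly interpolated, else capped at highest concentration. GI50 = concentration required for 50% inhibition of growth.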 Active and inactive are the calls of the source. Rule as the data show it: active = GI50 up to about 1.1 µM and inactive = higher.

What was measured:
Test in all cases: inhibition of tumour cell growth, NCI panel, 48 h
SF-539 = tested on: SF-539
SF-295 = tested on: SF-295
OVCAR-8 = tested on: OVCAR-8
KM12 = tested on: KM12
ACHN = tested on: ACHN
UACC-62 = tested on: UACC-62
SK-MEL-5 = tested on: SK-MEL-5
OVCAR-3 = tested on: OVCAR-3
HT-29 = tested on: HT-29
OVCAR-4 = tested on: OVCAR-4
Malme-3M = tested on: Malme-3M
A498 = tested on: A498
K562 = tested on: K562
SK-MEL-28 = tested on: SK-MEL-28
HCT-116 = tested on: HCT-116
SNB-75 = tested on: SNB-75
SK-OV-3 = tested on: SK-OV-3
CAKI-1 = tested on: CAKI-1

Measured: GI50

COC(=O)/C(=N\NC(=O)c1ccccc1O)C(C#N)c1ccc(Cl)cc1 (configuration not stated)
inactive: SF-539 9.29 µM | SF-295 30.5 µM | OVCAR-8 28.1 µM | KM12 43.6 µM | ACHN 5.85 µM | UACC-62 3.69 µM | SK-MEL-5 16.7 µM | OVCAR-3 29.9 µM | HT-29 74.1 µM | OVCAR-4 26.7 µM | Malme-3M 26.1 µM | A498 > 100 µM | K562 37.9 µM | SK-MEL-28 28.3 µM | HCT-116 30.3 µM

COc1ccccc1-c1cc(=O)c2cc(C)c(C)c(C(=O)O)c2o1
inactive: SF-539 > 100 µM | SF-295 > 100 µM | OVCAR-8 > 100 µM | KM12 > 100 µM | ACHN > 100 µM | UACC-62 > 100 µM | SK-MEL-5 > 100 µM | OVCAR-3 > 100 µM | HT-29 > 100 µM | OVCAR-4 > 100 µM | Malme-3M > 100 µM | A498 > 100 µM | K562 > 100 µM | SNB-75 40.2 µM | SK-MEL-28 > 100 µM | HCT-116 > 100 µM | SK-OV-3 > 100 µM

Nc1c(C(=O)Nc2ccccc2O)[n+]([O-])c2ccccc2[n+]1[O-]
inactive: SF-539 32.3 µM | SF-295 58.9 µM | OVCAR-8 64.1 µM | KM12 79.3 µM | ACHN 87.5 µM | CAKI-1 > 100 µM | SK-MEL-5 14.7 µM | OVCAR-3 29.9 µM | HT-29 > 100 µM | OVCAR-4 > 100 µM | Malme-3M 83.9 µM | A498 > 100 µM | K562 41.9 µM | SNB-75 47.9 µM | SK-MEL-28 79.4 µM | HCT-116 31.7 µM | SK-OV-3 > 100 µM

O=C1C(=O)N(c2nccs2)C(=O)C(=O)C1c1nc2ccccc2s1
inactive: SF-539 > 100 µM | SF-295 > 100 µM | OVCAR-8 > 100 µM | KM12 > 100 µM | ACHN > 100 µM | CAKI-1 > 100 µM | UACC-62 > 100 µM | OVCAR-3 > 100 µM | HT-29 > 100 µM | OVCAR-4 > 100 µM | Malme-3M > 100 µM | SNB-75 > 100 µM | SK-MEL-28 > 100 µM | HCT-116 > 100 µM | SK-OV-3 > 100 µM

O=C(c1ccccc1)C(c1ccccc1)C1(O)C(=O)Nc2ccc(Br)cc21 (configuration not stated)
inactive: SF-539 44.9 µM | SF-295 > 100 µM | OVCAR-8 52.8 µM | KM12 95.3 µM | ACHN > 100 µM | CAKI-1 99.1 µM | UACC-62 20.1 µM | OVCAR-3 45.6 µM | HT-29 52 µM | OVCAR-4 32.8 µM | Malme-3M 76.6 µM | A498 > 100 µM | K562 18.9 µM | SNB-75 40.1 µM | SK-MEL-28 46.1 µM | HCT-116 37.9 µM | SK-OV-3 > 100 µM

COc1cccc(N2C(=O)/C(=C/c3ccc(N(CCC#N)CCC#N)cc3)N=C2c2cc([N+](=O)[O-])ccc2Cl)c1
inactive: SF-539 > 100 µM | SF-295 19.7 µM | OVCAR-8 78.7 µM | KM12 49.5 µM | ACHN 44 µM | CAKI-1 > 100 µM | UACC-62 39.1 µM | SK-MEL-5 84.9 µM | OVCAR-3 35.6 µM | HT-29 47 µM | OVCAR-4 > 100 µM | Malme-3M > 100 µM | A498 > 100 µM | K562 34.5 µM | SNB-75 95.5 µM | SK-MEL-28 > 100 µM | SK-OV-3 > 100 µM

Cc1cc(Cl)ccc1NC(=O)C(=O)C(C(=O)c1ccc2ccccc2c1)C1OC(=O)c2ccccc21 (configuration not stated)
inactive: SF-539 4.48 µM | OVCAR-8 14.1 µM | KM12 17 µM | ACHN 23.2 µM | CAKI-1 11.6 µM | UACC-62 8.67 µM | SK-MEL-5 12.7 µM | OVCAR-3 9.98 µM | HT-29 28.4 µM | OVCAR-4 7.6 µM | Malme-3M 10 µM | A498 7.48 µM | K562 8.61 µM | SNB-75 10.1 µM | SK-MEL-28 9.79 µM | HCT-116 9.4 µM | SK-OV-3 15.7 µM

C/C(=N\NC(=S)NC(CCC(=O)O)C(=O)O)c1ccccn1 (configuration not stated)
inactive: SF-539 > 100 µM | SF-295 > 100 µM | OVCAR-8 > 100 µM | KM12 > 100 µM | ACHN > 100 µM | UACC-62 > 100 µM | SK-MEL-5 > 100 µM | OVCAR-3 > 100 µM | HT-29 > 100 µM | OVCAR-4 > 100 µM | Malme-3M > 100 µM | A498 > 100 µM | K562 > 100 µM | SNB-75 > 100 µM | SK-MEL-28 > 100 µM | HCT-116 > 100 µM | SK-OV-3 > 100 µM

CCc1c(C#N)c(=O)[nH]c(=O)n1CCN1CCN(C(=O)NCCCCCCNC(=O)N2CCN(CCn3c(CC)c(C#N)c(=O)[nH]c3=O)CC2)CC1
inactive: SF-539 > 100 µM | SF-295 > 100 µM | OVCAR-8 > 100 µM | ACHN > 100 µM | CAKI-1 > 100 µM | UACC-62 > 100 µM | SK-MEL-5 > 100 µM | OVCAR-3 > 100 µM | HT-29 > 100 µM | OVCAR-4 > 100 µM | A498 > 100 µM | K562 > 100 µM | SNB-75 > 10 µM | SK-MEL-28 > 10 µM | HCT-116 > 100 µM | SK-OV-3 > 100 µM

CC1(Cc2ccccc2)NC(=S)NC1=O (configuration not stated)
inactive: SF-539 > 100 µM | SF-295 > 100 µM | OVCAR-8 > 100 µM | KM12 > 100 µM | ACHN > 100 µM | CAKI-1 > 100 µM | HT-29 > 100 µM | Malme-3M > 100 µM | SNB-75 > 100 µM | SK-MEL-28 > 100 µM

CC(C)C1=CC23CCC4C(C)(C(=O)O)CCCC4(C)C2CC1C1C(=O)N(c2ccccc2)C(=O)C13 (configuration not stated)
inactive: SF-539 51.3 µM | SF-295 51.2 µM | OVCAR-8 64 µM | KM12 27.9 µM | ACHN 28.1 µM | CAKI-1 > 100 µM | UACC-62 38.6 µM | SK-MEL-5 44.2 µM | OVCAR-3 33.7 µM | HT-29 38.6 µM | OVCAR-4 > 100 µM | Malme-3M 67.9 µM | K562 69.8 µM | SNB-75 53.2 µM | SK-MEL-28 53.2 µM | HCT-116 39.1 µM | SK-OV-3 56.4 µM

COC(=O)CCC12CCC(=O)C1[C@@H](C(=O)OC)C[C@H]2C(=O)OC (some centres not stated)
inactive: SF-539 > 100 µM | SF-295 > 100 µM | OVCAR-8 > 100 µM | KM12 > 100 µM | ACHN > 100 µM | CAKI-1 > 100 µM | UACC-62 > 100 µM | SK-MEL-5 > 100 µM | OVCAR-3 > 100 µM | HT-29 > 100 µM | OVCAR-4 > 100 µM | Malme-3M > 100 µM | A498 > 100 µM | K562 > 100 µM | SNB-75 > 100 µM | HCT-116 > 100 µM | SK-OV-3 > 100 µM
